Measured values published in ChEMBL document CHEMBL2057164, “Head-to-head prenyl tranferases: anti-infective drug targets” (J Med Chem, 2012).
pKi: −log10 of the molar value.

Experiment: Inhibition of Trypanosoma cruzi squalene synthase

pKi: 5.92
SMILES: CC(C)=CCC/C(C)=C/CNCCNC1C2CC3CC(C2)CC1C3 (stereo unspecified) [SQ109]
